Measured values published in patent US20080188461A1, “Compositions and methods for detecting, preventing and treating seizures and seizure related disorders” (Regents of the University of Michigan, priority 2007, published 2008).

System: seizures
Test: Reduction in the number of seizures in individuals with multiple daily seizures treated with rapamycin
Assay type: in vivo, human
Conditions: up to 7 mg/day rapamycin in combination with an anti-epileptic drug regimen, treatment 31-32 months
Description: In particular, 14 individuals experiencing multiple daily seizures (4 males with diagnosed TSC, 5 females with diagnosed TSC, 1 person with diagnosed Lennox-Gastaut Syndrome, and 4 females with diagnosed Lennox-Gastaut Syndrome) between the ages of 3-18 were administered rapamycin in combination with an anti-epileptic drug regimen. […] Each individual received between up to 7 mg/day of rapamycin. […] The duration of treatment was between 31 and 32 months.

CO[C@H]1C[C@@H]2CC[C@@H](C)[C@@](O)(O2)C(=O)C(=O)N2CCCC[C@H]2C(=O)O[C@H]([C@H](C)C[C@@H]2CC[C@@H](O)[C@H](OC)C2)CC(=O)[C@H](C)/C=C(\C)[C@@H](O)[C@@H](OC)C(=O)[C@H](C)C[C@H](C)/C=C/C=C/C=C/1C [rapamycin, Rapamycin]
reduction in seizures (2 of the individuals diagnosed with TSC): greater than 90% | reduction in seizures (3 of the individuals diagnosed with Lennox-Gastaut Syndrome): greater than 90% | reduction in seizures (5 of the individuals diagnosed with Lennox-Gastaut Syndrome): greater than 50% | reduction in seizures (5 of the individuals diagnosed with TSC): greater than 50%
